# Source: article PMC5218480 (PLoS ONE, 2017)
# Tested on: MV-4-11 cells
# Experiment: Gene expression microarray analysis (Affymetrix PrimeView) and GSEA
# Type: cell-based, human
# Set-up: RFU PODN (11730768_x_at) / Fold change /veh PODN (11730768_x_at) / RFU LINC00158 (11744669_a_at) / Fold change /veh LINC00158 (11744669_a_at) / RFU DUSP10 (11751237_a_at) / Fold change /veh DUSP10 (11751237_a_at) / RFU ID3 (11757404_x_at) / Fold change /veh ID3 (11757404_x_at) / RFU PLEKHG5 (11737974_s_at) / Fold change /veh PLEKHG5 (11737974_s_at) / RFU LRRC4B (11730491_at) / Fold change /veh LRRC4B (11730491_at) / RFU GIMAP4 (11747438_a_at) / Fold change /veh GIMAP4 (11747438_a_at) / RFU KRT8 (11758183_x_at) / Fold change /veh KRT8 (11758183_x_at) / RFU CNN1 (11734310_a_at) / Fold change /veh CNN1 (11734310_a_at) / RFU VPS37D (11726825_at) / Fold change /veh VPS37D (11726825_at) / RFU C10orf10 (11716522_x_at) / Fold change /veh C10orf10 (11716522_x_at) / RFU KIR2DL2 /// KIR2DL4 /// KIR2DL5A /// KIR2DL5B /// KIR2DS1 /// KIR2DS2 /// KIR2DS3 /// KIR2DS4 /// KIR3DL3 /// KIR3DL3 /// KIR3DS1 (11738374_at) / Fold change /veh KIR2DL2 /// KIR2DL4 /// KIR2DL5A /// KIR2DL5B /// KIR2DS1 /// KIR2DS2 /// KIR2DS3 /// KIR2DS4 /// KIR3DL3 /// KIR3DL3 /// KIR3DS1 (11738374_at) / RFU C1QL1 (11718748_at) / Fold change /veh C1QL1 (11718748_at) / RFU TMPRSS4 (11747572_a_at) / Fold change /veh TMPRSS4 (11747572_a_at) / RFU HAMP (11756126_x_at) / Fold change /veh HAMP (11756126_x_at) / RFU RNFT2 (11725882_a_at) / Fold change /veh RNFT2 (11725882_a_at) / RFU NR4A2 (11747474_a_at) / Fold change /veh NR4A2 (11747474_a_at) / RFU ABCC12 (11746883_a_at) / Fold change /veh ABCC12 (11746883_a_at) / RFU TMEM136 (11760407_x_at) / Fold change /veh TMEM136 (11760407_x_at) / RFU CLDN22 /// WWC2 (11732394_at) / Fold change /veh CLDN22 /// WWC2 (11732394_at) / RFU HLA-DPB1 (11760878_x_at) / Fold change /veh HLA-DPB1 (11760878_x_at) / RFU SPINT1 (11716480_a_at) / Fold change /veh SPINT1 (11716480_a_at) / RFU GAP43 (11754022_s_at) / Fold change /veh GAP43 (11754022_s_at) / RFU A4GNT (11735810_at) / Fold change /veh A4GNT (11735810_at) / RFU PRB3 (11715151_x_at) / Fold change /veh PRB3 (11715151_x_at) / RFU TUBB4B (11761932_at) / Fold change /veh TUBB4B (11761932_at) / RFU CAPN14 (11732068_a_at) / Fold change /veh CAPN14 (11732068_a_at) / RFU TMCC2 (11721928_a_at) / Fold change /veh TMCC2 (11721928_a_at) / RFU IRGQ (11745062_a_at) / Fold change /veh IRGQ (11745062_a_at) / RFU FAM174B (11720279_a_at) / Fold change /veh FAM174B (11720279_a_at) / RFU TMPRSS4 (11748680_a_at) / Fold change /veh TMPRSS4 (11748680_a_at) / RFU FAM212B (11763350_a_at) / Fold change /veh FAM212B (11763350_a_at) / RFU PLEKHG5 (11743358_a_at) / Fold change /veh PLEKHG5 (11743358_a_at) / RFU ZSCAN30 (11745921_a_at) / Fold change /veh ZSCAN30 (11745921_a_at) / RFU CMKLR1 (11741424_a_at) / Fold change /veh CMKLR1 (11741424_a_at) / RFU LOC101060620 /// MAPK8IP1 (11723275_at) / Fold change /veh LOC101060620 /// MAPK8IP1 (11723275_at) / RFU SPTSSB (11747773_x_at) / Fold change /veh SPTSSB (11747773_x_at) / RFU PRSS12 (11739890_at) / Fold change /veh PRSS12 (11739890_at) / RFU BIN1 (11741810_x_at) / Fold change /veh BIN1 (11741810_x_at) / RFU WNT11 (11732464_a_at) / Fold change /veh WNT11 (11732464_a_at) / RFU C10orf10 (11716521_a_at) / Fold change /veh C10orf10 (11716521_a_at) / RFU C5orf56 (11738089_at) / Fold change /veh C5orf56 (11738089_at) / RFU CYB561 (11721691_x_at) / Fold change /veh CYB561 (11721691_x_at) / RFU ANKRD19P (11752326_a_at) / Fold change /veh ANKRD19P (11752326_a_at) / RFU OR2T12 /// OR2T33 /// OR2T8 (11738714_s_at) / Fold change /veh OR2T12 /// OR2T33 /// OR2T8 (11738714_s_at) / RFU VCAN (11748164_a_at) / Fold change /veh VCAN (11748164_a_at) / RFU JSRP1 (11732532_at) / Fold change /veh JSRP1 (11732532_at) / RFU KRTAP10-11 (11738290_x_at) / Fold change /veh KRTAP10-11 (11738290_x_at) / RFU MYO3A (11730013_a_at) / Fold change /veh MYO3A (11730013_a_at) / RFU EBF3 (11725865_a_at) / Fold change /veh EBF3 (11725865_a_at) / RFU CAMK2N1 (11719241_x_at) / Fold change /veh CAMK2N1 (11719241_x_at) / RFU C5orf56 (11738088_a_at) / Fold change /veh C5orf56 (11738088_a_at) / RFU OLFML3 (11715873_a_at) / Fold change /veh OLFML3 (11715873_a_at) / RFU LOC100653217 /// NTM (11731650_a_at) / Fold change /veh LOC100653217 /// NTM (11731650_a_at) / RFU MAPK11 (11762145_a_at) / Fold change /veh MAPK11 (11762145_a_at) / RFU FIZ1 (11724087_x_at) / Fold change /veh FIZ1 (11724087_x_at) / RFU OASL (11726364_x_at) / Fold change /veh OASL (11726364_x_at) / RFU SOX15 (11748057_x_at) / Fold change /veh SOX15 (11748057_x_at) / RFU CD79A (11719716_a_at) / Fold change /veh CD79A (11719716_a_at) / RFU HIST1H1D (11736915_at) / Fold change /veh HIST1H1D (11736915_at) / RFU CASKIN2 (11723855_a_at) / Fold change /veh CASKIN2 (11723855_a_at) / RFU LOC730098 (11760151_x_at) / Fold change /veh LOC730098 (11760151_x_at) / RFU OR4N2 (11742367_at) / Fold change /veh OR4N2 (11742367_at) / RFU PRRT2 (11749266_a_at) / Fold change /veh PRRT2 (11749266_a_at) / RFU SNX32 (11753110_a_at) / Fold change /veh SNX32 (11753110_a_at) / RFU CDHR5 (11726645_a_at) / Fold change /veh CDHR5 (11726645_a_at) / RFU RCAN1 (11760418_a_at) / Fold change /veh RCAN1 (11760418_a_at) / RFU FAM167A (11723789_a_at) / Fold change /veh FAM167A (11723789_a_at) / RFU FAM26E (11764081_at) / Fold change /veh FAM26E (11764081_at) / RFU ISYNA1 (11749810_s_at) / Fold change /veh ISYNA1 (11749810_s_at) / RFU ACY1 (11761880_at) / Fold change /veh ACY1 (11761880_at) / RFU 11764098_at / Fold change /veh 11764098_at / RFU SAMD14 (11745864_x_at) / Fold change /veh SAMD14 (11745864_x_at) / RFU NPB (11741838_a_at) / Fold change /veh NPB (11741838_a_at) / RFU TMPRSS6 (11731388_a_at) / Fold change /veh TMPRSS6 (11731388_a_at) / RFU KRTAP10-2 (11738614_at) / Fold change /veh KRTAP10-2 (11738614_at) / RFU ARHGAP8 /// PRR5-ARHGAP8 (11727945_x_at) / Fold change /veh ARHGAP8 /// PRR5-ARHGAP8 (11727945_x_at) / RFU KRTAP5-7 /// NADSYN1 (11734609_at) / Fold change /veh KRTAP5-7 /// NADSYN1 (11734609_at) / RFU RASL12 (11751679_a_at) / Fold change /veh RASL12 (11751679_a_at) / RFU CDKN2B (11736163_a_at) / Fold change /veh CDKN2B (11736163_a_at) / RFU PRF1 (11729649_at) / Fold change /veh PRF1 (11729649_at) / RFU, ZNF638 /// ZNF638-IT1 / Fold change vs veh, ZNF638 /// ZNF638-IT1 / RFU, PANK3 / Fold change vs veh, PANK3 / RFU, SH3YL1 / Fold change vs veh, SH3YL1 / RFU, ZEB2 / Fold change vs veh, ZEB2 / RFU, NRIP1 / Fold change vs veh, NRIP1 / RFU, PTTG1IP / Fold change vs veh, PTTG1IP / RFU, CAPN2 / Fold change vs veh, CAPN2 / RFU, MED14 / Fold change vs veh, MED14 / RFU, SNORA58 / Fold change vs veh, SNORA58 / RFU, C1orf63 / Fold change vs veh, C1orf63 / RFU, LRRFIP1 / Fold change vs veh, LRRFIP1 / RFU, NDUFAF7 / Fold change vs veh, NDUFAF7 / RFU, SLC12A2 / Fold change vs veh, SLC12A2 / RFU, IBTK / Fold change vs veh, IBTK / RFU, ESF1 / Fold change vs veh, ESF1 / Fold change vs veh, TMEM50B / RFU, TAOK1 / Fold change vs veh, TAOK1 / RFU, ACBD3 / Fold change vs veh, ACBD3 / RFU, TMA16 / Fold change vs veh, TMA16 / RFU, RWDD3 / Fold change vs veh, RWDD3 / RFU, BCAT1 / Fold change vs veh, BCAT1 / RFU, EDEM3 / Fold change vs veh, EDEM3 / RFU, TMEM33 / Fold change vs veh, TMEM33 / RFU, WDR75 / Fold change vs veh, WDR75 / RFU, AHCTF1 / Fold change vs veh, AHCTF1 / RFU, TFRC / Fold change vs veh, TFRC / RFU, ZDHHC17 / Fold change vs veh, ZDHHC17 / RFU, NOM1 / Fold change vs veh, NOM1 / RFU, ARL8B / Fold change vs veh, ARL8B / RFU, ZBTB11 / Fold change vs veh, ZBTB11 / RFU, TAMM41 / Fold change vs veh, TAMM41 / RFU, KIAA1704 /// LOC100996395 / Fold change vs veh, KIAA1704 /// LOC100996395 / RFU, ING1 / Fold change vs veh, ING1 / RFU, TRMT61B / Fold change vs veh, TRMT61B / RFU, FUBP3 / Fold change vs veh, FUBP3 / RFU, TP53 / Fold change vs veh, TP53 / RFU, TNKS2 / Fold change vs veh, TNKS2 / RFU, ZFP14 / Fold change vs veh, ZFP14 / RFU, ACTR2 / Fold change vs veh, ACTR2 / RFU, PPP3R1 / Fold change vs veh, PPP3R1 / RFU, PIK3R1 / Fold change vs veh, PIK3R1 / RFU, HNRNPA1 / Fold change vs veh, HNRNPA1 / RFU, RNF170 / Fold change vs veh, RNF170 / RFU, ZNF28 / Fold change vs veh, ZNF28 / RFU, RNGTT / Fold change vs veh, RNGTT / RFU, OGT / Fold change vs veh, OGT / RFU, BRD1 / Fold change vs veh, BRD1 / RFU, MARS / Fold change vs veh, MARS / RFU, ZNF655 / Fold change vs veh, ZNF655 / RFU, FAHD1 / Fold change vs veh, FAHD1 / RFU, BDP1 / Fold change vs veh, BDP1 / RFU, LRRCC1 / Fold change vs veh, LRRCC1 / RFU, ARID1A / Fold change vs veh, ARID1A / RFU, ZNF146 / Fold change vs veh, ZNF146 / RFU, ZNF330 / Fold change vs veh, ZNF330 / RFU, GPN3 / Fold change vs veh, GPN3 / RFU, C9orf123 / Fold change vs veh, C9orf123 / RFU, N4BP2L2 / Fold change vs veh, N4BP2L2 / RFU, ARFIP1 / Fold change vs veh, ARFIP1 / RFU, FAM179B / Fold change vs veh, FAM179B / RFU, BCL10 / Fold change vs veh, BCL10 / RFU, UHRF1BP1L / Fold change vs veh, UHRF1BP1L / RFU, BET1 / Fold change vs veh, BET1 / RFU, CNOT2 / Fold change vs veh, CNOT2 / RFU, ZNF268 / Fold change vs veh, ZNF268 / Fold change vs veh, ZNF507 / RFU, DGCR2 / Fold change vs veh, DGCR2 / RFU, WDSUB1 / Fold change vs veh, WDSUB1 / Fold change vs veh, HSP90B1 /// MIR3652 / RFU, ADSS / Fold change vs veh, ADSS / RFU, GK / Fold change vs veh, GK / RFU, ZNF148 / Fold change vs veh, ZNF148 / RFU, TAF9 / Fold change vs veh, TAF9 / RFU, SLC1A5 / Fold change vs veh, SLC1A5 / RFU, SLMO2 / Fold change vs veh, SLMO2 / RFU, ABCC4 / Fold change vs veh, ABCC4 / RFU, LOC101060439 /// RAP1B / Fold change vs veh, LOC101060439 /// RAP1B / RFU, RFX7 / Fold change vs veh, RFX7 / RFU, GTPBP10 / Fold change vs veh, GTPBP10 / RFU, CNEP1R1 / Fold change vs veh, CNEP1R1 / RFU, BIVM-ERCC5 /// ERCC5 / Fold change vs veh, BIVM-ERCC5 /// ERCC5 / RFU, ILF3 / Fold change vs veh, ILF3 / RFU 11762660_at / Fold change /veh 11762660_at / RFU VCAN (11757783_s_at) / Fold change /veh VCAN (11757783_s_at) / RFU DDX43 (11728927_at) / Fold change /veh DDX43 (11728927_at) / RFU KRT8 (11758188_x_at) / Fold change /veh KRT8 (11758188_x_at) / RFU NKD1 (11759106_at) / Fold change /veh NKD1 (11759106_at) / RFU SRD5A1 (11742802_a_at) / Fold change /veh SRD5A1 (11742802_a_at) / RFU TPSAB1 /// TPSB2 (11721975_s_at) / Fold change /veh TPSAB1 /// TPSB2 (11721975_s_at) / RFU GSTM3 (11746129_a_at) / Fold change /veh GSTM3 (11746129_a_at) / RFU IL23R (11737362_x_at) / Fold change /veh IL23R (11737362_x_at) / RFU TMEM51 (11727254_a_at) / Fold change /veh TMEM51 (11727254_a_at) / RFU PIWIL2 (11732686_x_at) / Fold change /veh PIWIL2 (11732686_x_at) / RFU ORM1 (11744905_x_at) / Fold change /veh ORM1 (11744905_x_at) / RFU CCDC152 (11743942_at) / Fold change /veh CCDC152 (11743942_at) / RFU ECM1 (11717891_a_at) / Fold change /veh ECM1 (11717891_a_at) / RFU IL23R (11748794_a_at) / Fold change /veh IL23R (11748794_a_at) / RFU TNFAIP8L3 (11732012_x_at) / Fold change /veh TNFAIP8L3 (11732012_x_at) / RFU MBOAT4 (11741988_at) / Fold change /veh MBOAT4 (11741988_at) / RFU 11764193_at / Fold change /veh 11764193_at / RFU TMEM53 (11763286_at) / Fold change /veh TMEM53 (11763286_at) / RFU MAGEB2 (11727129_at) / Fold change /veh MAGEB2 (11727129_at) / RFU TMEM200A (11744735_a_at) / Fold change /veh TMEM200A (11744735_a_at) / RFU CCDC152 (11751479_a_at) / Fold change /veh CCDC152 (11751479_a_at) / RFU FAM211A (11726209_a_at) / Fold change /veh FAM211A (11726209_a_at) / RFU RGS16 (11746705_a_at) / Fold change /veh RGS16 (11746705_a_at) / RFU VCAN (11755009_s_at) / Fold change /veh VCAN (11755009_s_at) / RFU RHOB (11743442_s_at) / Fold change /veh RHOB (11743442_s_at) / RFU RGS16 (11720943_a_at) / Fold change /veh RGS16 (11720943_a_at) / RFU RGS16 (11720944_at) / Fold change /veh RGS16 (11720944_at) / RFU, VPS4B / Fold change vs veh, VPS4B / RFU, CREB1 / Fold change vs veh, CREB1 / RFU, DNAJC13 / Fold change vs veh, DNAJC13 / RFU, GNAQ / Fold change vs veh, GNAQ / RFU, CDK5R1 / Fold change vs veh, CDK5R1 / RFU, ZRANB3 / Fold change vs veh, ZRANB3 / RFU, CUL4A / Fold change vs veh, CUL4A / RFU, CCNY / Fold change vs veh, CCNY / RFU, UFL1 / Fold change vs veh, UFL1 / RFU, COG3 / Fold change vs veh, COG3 / RFU, DIAPH2 / Fold change vs veh, DIAPH2 / RFU, SKA2 / Fold change vs veh, SKA2 / RFU, AFF3 / Fold change vs veh, AFF3 / RFU, LMF1 / Fold change vs veh, LMF1 / RFU, IPO11 / Fold change vs veh, IPO11 / RFU, DFFB / Fold change vs veh, DFFB / RFU, FOXP1 / Fold change vs veh, FOXP1 / RFU, CARD8 / Fold change vs veh, CARD8 / RFU, STRN3 / Fold change vs veh, STRN3 / RFU, ADK / Fold change vs veh, ADK / RFU, RASSF2 / Fold change vs veh, RASSF2 / RFU, WIPF1 / Fold change vs veh, WIPF1 / RFU, LARP1B / Fold change vs veh, LARP1B / RFU, RASA1 / Fold change vs veh, RASA1 / RFU, RB1 / Fold change vs veh, RB1 / RFU, PPFIA1 / Fold change vs veh, PPFIA1 / RFU, MAT2A / Fold change vs veh, MAT2A / RFU, CCT5 / Fold change vs veh, CCT5 / RFU, WDR92 / Fold change vs veh, WDR92 / RFU, CUX1 / Fold change vs veh, CUX1 / RFU, TTC7A / Fold change vs veh, TTC7A / RFU, TMEM135 / Fold change vs veh, TMEM135 / RFU, DEPTOR / Fold change vs veh, DEPTOR / RFU, CPM / Fold change vs veh, CPM / RFU, DNAJB6 / Fold change vs veh, DNAJB6 / RFU, CACNA2D3 / Fold change vs veh, CACNA2D3 / RFU, DTX4 / Fold change vs veh, DTX4 / RFU, TFCP2 / Fold change vs veh, TFCP2 / RFU, GMCL1 /// GMCL1P1 / Fold change vs veh, GMCL1 /// GMCL1P1 / RFU, AEBP2 / Fold change vs veh, AEBP2 / RFU, SNHG1 /// SNORD22 /// SNORD25 /// SNORD26 /// SNORD27 /// SNORD28 /// SNORD29 /// SNORD31 / Fold change vs veh, SNHG1 /// SNORD22 /// SNORD25 /// SNORD26 /// SNORD27 /// SNORD28 /// SNORD29 /// SNORD31 / Fold change (Aza/veh), C12orf56 (ProbeSet 11735607_a_at) / Fold change (ACY-1035/veh), C12orf56 (ProbeSet 11735607_a_at) / Fold change (Aza/veh), FGFR1OP (ProbeSet 11751329_s_at) / Fold change (ACY-1035/veh), FGFR1OP (ProbeSet 11751329_s_at) / Fold change (Aza/veh), VPS36 (ProbeSet 11739960_a_at) / Fold change (ACY-1035/veh), VPS36 (ProbeSet 11739960_a_at) / RFU SYPL1 (11715823_x_at) / Fold change /veh SYPL1 (11715823_x_at) / RFU IGFBP7 (11715501_s_at) / Fold change /veh IGFBP7 (11715501_s_at) / RFU REEP3 (11722064_at) / Fold change /veh REEP3 (11722064_at) / RFU IGLL1 (11728026_x_at) / Fold change /veh IGLL1 (11728026_x_at): dose or concentration left out as unconfirmed
# Conditions: MV-4-11 cells, 48 hours
compound,measurement,value
Nc1ccc(-c2cccs2)cc1NC(=O)c1ccc2c(c1)cc(C1CC1)n2CCN1CCOCC1 [ACY-1035],RFU ACY1 (11761880_at),20.30 RFU
